The values that follow come from patent US12590099B2, “Inhibitors of histone deacetylase useful for the treatment or prevention of HIV infection” (Merck Sharp & Dohme LLC, priority 2018, dated 2026).

Structures are written as SMILES. Read-outs that look alike come from different tables or passages of the source.

In general, IC50 refers to the concentration that inhibits the measured activity by half. As a reminder, the EC50 is the concentration that produces a half-maximal response.

The target in one assay is T1, Recombinant human HDAC1 (Homo sapiens, UniProt Q13547).
T1 construct: FLAG (C); made in house
The assay can be described thus: Human HDAC enzyme inhibitor Fluor-de-Lys assay, HDAC1. The class given is biochemical. The conditions noted are these: recombinant human HDAC1, Fluor-de-Lys assay. A digest of the protocol: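 Fluor-de-Lys format at room temperature (23° C.): compounds titrated 10-point, 1:3, preincubated with HDAC before substrate addition; HDAC1 run at 0.3 nM enzyme with 20 μM BML-KI104. Developer with excess HDAC inhibitor ends the reaction, and trypsin-liberated AMC fluorescence is the read-out.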

Assay [1] has as its target T2, Recombinant human HDAC3/SMRT heterodimer (Homo sapiens, UniProt O15379).
T2 construct: FLAG (C); made in house
The assay can be described thus: Human HDAC enzyme inhibitor Fluor-de-Lys assay, HDAC3/SMRT. Particulars: recombinant human HDAC3/SMRT, Fluor-de-Lys assay. The class given is biochemical.

Another assay deals with KARN cells (Jurkat 2C4). The assay can be described thus: cells. In kind it is cell-based. Particulars: luciferase induction, 100% = 2 μM SAHA. A digest of the protocol: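 Luminescence (Steady-Glo, 10 min, room temperature) measured next day in KARN Jurkat 2C4 cells given compounds at up to 40 μM final with 0.4% DMSO. Percent activation normalised to DMSO (0%) and 2 μM SAHA (100%), fitted by 4-parameter curve.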

Setting [2] is: Homo sapiens, Jurkat, read-out: Karn EC50 (nM) 0.1% NHS, 0.1% normal human serum.
[3] abbreviates: Homo sapiens, Jurkat, read-out: Karn EC50 (nM) 5% NHS, 5% normal human serum.

T1 sequence (Q13547 whole entry): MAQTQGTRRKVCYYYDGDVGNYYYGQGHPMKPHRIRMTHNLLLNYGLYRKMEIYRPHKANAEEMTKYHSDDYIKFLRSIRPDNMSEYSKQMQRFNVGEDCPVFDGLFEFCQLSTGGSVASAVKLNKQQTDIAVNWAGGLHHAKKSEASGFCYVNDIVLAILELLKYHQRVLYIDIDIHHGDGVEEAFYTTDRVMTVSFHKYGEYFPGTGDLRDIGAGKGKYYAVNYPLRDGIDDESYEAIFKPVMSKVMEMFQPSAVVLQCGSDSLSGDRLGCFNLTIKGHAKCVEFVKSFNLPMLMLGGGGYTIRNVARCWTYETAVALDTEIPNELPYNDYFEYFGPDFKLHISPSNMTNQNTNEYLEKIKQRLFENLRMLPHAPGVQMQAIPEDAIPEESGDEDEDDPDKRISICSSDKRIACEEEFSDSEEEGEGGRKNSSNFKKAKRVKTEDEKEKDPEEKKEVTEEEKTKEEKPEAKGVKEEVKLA
T2 sequence (O15379 whole entry): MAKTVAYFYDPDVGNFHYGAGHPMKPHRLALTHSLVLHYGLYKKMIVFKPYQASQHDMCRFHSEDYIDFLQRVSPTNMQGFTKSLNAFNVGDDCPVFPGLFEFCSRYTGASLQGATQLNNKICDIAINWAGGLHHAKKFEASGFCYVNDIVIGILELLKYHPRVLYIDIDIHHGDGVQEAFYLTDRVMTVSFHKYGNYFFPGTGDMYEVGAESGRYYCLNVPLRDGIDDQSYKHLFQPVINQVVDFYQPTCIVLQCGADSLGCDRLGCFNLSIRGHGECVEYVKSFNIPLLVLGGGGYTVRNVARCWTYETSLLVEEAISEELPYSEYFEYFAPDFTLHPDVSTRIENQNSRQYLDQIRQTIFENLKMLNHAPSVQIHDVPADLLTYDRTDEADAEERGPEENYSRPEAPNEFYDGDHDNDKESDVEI
T2 sequence (Q9Y618 1-899 partner limits assumed): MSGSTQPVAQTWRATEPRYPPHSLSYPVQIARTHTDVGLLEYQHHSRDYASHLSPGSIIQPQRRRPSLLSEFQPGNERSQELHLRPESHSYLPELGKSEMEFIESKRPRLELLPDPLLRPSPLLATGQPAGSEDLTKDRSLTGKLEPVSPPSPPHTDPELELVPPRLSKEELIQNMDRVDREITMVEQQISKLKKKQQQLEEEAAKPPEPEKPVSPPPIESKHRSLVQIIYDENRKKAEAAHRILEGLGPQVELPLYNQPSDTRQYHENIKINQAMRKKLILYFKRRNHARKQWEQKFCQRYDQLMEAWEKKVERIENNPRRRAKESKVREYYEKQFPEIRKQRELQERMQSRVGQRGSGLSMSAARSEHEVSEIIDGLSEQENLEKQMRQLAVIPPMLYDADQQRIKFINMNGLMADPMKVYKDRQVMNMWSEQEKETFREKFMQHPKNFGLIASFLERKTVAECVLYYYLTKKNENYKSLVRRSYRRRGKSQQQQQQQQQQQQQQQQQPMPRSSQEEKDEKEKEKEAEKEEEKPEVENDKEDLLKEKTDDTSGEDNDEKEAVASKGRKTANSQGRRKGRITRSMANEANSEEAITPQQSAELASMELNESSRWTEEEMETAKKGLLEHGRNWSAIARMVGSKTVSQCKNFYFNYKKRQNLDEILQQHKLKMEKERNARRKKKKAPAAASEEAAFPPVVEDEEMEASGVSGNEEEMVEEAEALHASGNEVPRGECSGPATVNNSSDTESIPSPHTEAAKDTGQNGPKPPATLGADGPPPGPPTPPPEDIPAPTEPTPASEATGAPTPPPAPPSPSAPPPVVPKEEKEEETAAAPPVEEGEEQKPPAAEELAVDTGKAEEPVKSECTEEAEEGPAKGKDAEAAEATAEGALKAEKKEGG

As to `CCC(=O)CCCCC[C@H](NC(=O)C1=NOC2(CCN(C)CC2)C1)c1ncc(-c2ccc(-c3cnccn3)cc2OC)o1` [Compound 237, N-{(1S)-1-[5-(2-methoxy-4-pyrazin-2-ylphenyl)-1,3-oxazol-2-yl]-7-oxononyl}-8-methyl-1-oxa-2,8-diazaspiro[4.5]dec-2-ene-3-carboxamide], the half-inhibitory concentration (IC50) at Recombinant human HDAC1 came to 2.41 nM; in assay [1] it was 6.06 nM. Moreover, the EC50 in the assay on KARN cells (Jurkat 2C4) (setting [2]) turned out to be 235 nM; with KARN cells (Jurkat 2C4) (setting [3]), 274 nM.
In the case of `CCC(=O)CCCCC[C@H](NC(=O)[C@H]1CC12CCN(CC)CC2)c1ncc(-c2ccc3nn(C4CC4)cc3c2)[nH]1` [Compound 238], the IC50 came out at 0.22 nM on Recombinant human HDAC1 and 0.27 nM in assay [1]. Moreover, the EC50 was determined as 66 nM in the assay on KARN cells (Jurkat 2C4) (setting [2]) and 45 nM with KARN cells (Jurkat 2C4) (setting [3]).
For `CCCC(=O)CCCCC[C@H](NC(=O)[C@H]1CC12CCN(C)CC2)c1ncc(-c2ccc(F)cc2)[nH]1` [Compound 239], in that order: 13.9 nM, 15.3 nM, 324 nM and 581 nM.
In the case of `CCC(=O)CCCCC[C@H](NC(=O)[C@H]1CC12CCN(C)CC2)c1[nH]c(-c2ccc(F)cc2)nc1Cl` [Compound 240], the IC50 at Recombinant human HDAC1 was determined as 5.73 nM; in assay [1], 2.95 nM. Further, the EC50 with KARN cells (Jurkat 2C4) (setting [2]) was determined as 247 nM; in the assay with KARN cells (Jurkat 2C4) (setting [3]), 346 nM.
For `CCC(=O)CCCCC[C@H](NC(=O)C1CC12CCN(CC)CC2)c1nc(-c2ccc(F)cc2)[nH]c1-c1cnc(OC)nc1` (some centres unmarked) [Compound 247] the same measures were 39 nM, 35.9 nM, 9640 nM and 10800 nM.
Turning to `CCC(=O)CCCCC[C@H](NC(=O)C1CC12CCN(CC)CC2)c1nc(-c2ccc(F)cc2)[nH]c1-c1cn[nH]c1` (some centres unmarked) [Compound 249], the IC50 on Recombinant human HDAC1 stood at 17.4 nM; in assay [1], 20.1 nM. The EC50 in the assay on KARN cells (Jurkat 2C4) (setting [2]) was more than 40000 nM.
As for `CCC(=O)CCCCC[C@H](NC(=O)C1CC12CCN(CC)CC2)c1nc(-c2ccc(F)cc2)[nH]c1-c1ccn(C)c1` (some centres unmarked) [Compound 251], the IC50 was determined as 2.73 nM on Recombinant human HDAC1 and 1.82 nM in assay [1]. For the same compound, the EC50 stood at 143 nM in the assay with KARN cells (Jurkat 2C4) (setting [2]) and 216 nM with KARN cells (Jurkat 2C4) (setting [3]).
For `CCC(=O)CCCCC[C@H](NC(=O)C1CC12CCN(CC)CC2)c1nc(-c2ccc(F)cc2)[nH]c1-c1cccs1` (some centres unmarked) [Compound 252], in that order: 56.6 nM, 66.1 nM, 1600 nM and 2880 nM.
For `CCC(=O)CCCCCC(NC(=O)C1CC12CCN(CC)CC2)c1nc(-c2ccc(F)cc2)[nH]c1-c1ccnn1C` (centres unmarked) [Compound 253] the same measures were 30.4 nM, 16.7 nM, 1870 nM and 2340 nM.
For `CCCn1cc(-c2[nH]c(-c3ccc(F)cc3)nc2C(CCCCCC(=O)CC)NC(=O)C2CC23CCN(CC)CC3)cn1` (centres unmarked) [Compound 254] the same measures were 29.4 nM, 29.6 nM, 5340 nM and 6040 nM.
On to `CCC(=O)CCCCC[C@H](NC(=O)[C@H]1CC12CCN(C)CC2)c1ncc(-c2cnc(OC)nc2)[nH]1` [Compound 255], for which the IC50 on Recombinant human HDAC1 came to 168 nM; in assay [1], 81.9 nM. For the same compound, the EC50 stood at 13300 nM with KARN cells (Jurkat 2C4) (setting [2]) and 14800 nM with KARN cells (Jurkat 2C4) (setting [3]).
For `CCC(=O)CCCCC[C@H](NC(=O)[C@H]1CC12CCN(C)CC2)c1ncc(-c2cnc3c(c2)ncn3C)[nH]1` [Compound 256] the same measures were 74.6 nM, 57.9 nM, 23700 nM and more than 40000 nM.
For `CCC(=O)CCCCC[C@H](NC(=O)[C@H]1CC12CCN(C)CC2)c1ncc(-c2ccc3c(c2)c2ccccc2n3C)[nH]1` [Compound 265] the same measures were 5.14 nM, 3.86 nM, 142 nM and 370 nM.
For the compound `CCC(=O)CCCCC[C@H](NC(=O)C1=NOC2(CCN(CC)CC2)C1)c1ncc(-c2cc3ccc(C)nc3cc2F)o1` [Compound 269], the values for the IC50 (at Recombinant human HDAC1; in assay [1]) were 5.18 nM and 8.3 nM, respectively. Besides, the EC50 was determined as 746 nM in the assay on KARN cells (Jurkat 2C4) (read-out: Karn EC50 (nM) 0.1% NHS, 0.1% normal human serum) and 1210 nM in the assay on KARN cells (Jurkat 2C4) (read-out: Karn EC50 (nM) 5% NHS, 5% normal human serum).
With `CCC(=O)CCCCC[C@H](NC(=O)C1CCC2(CC1)CN(C(C)C)C2)c1ncc(-c2cc3ccccc3nc2OC)[nH]1` [Compound 272], the IC50 on Recombinant human HDAC1 was 2.08 nM; in assay [1], less than 1.5 nM. The results for the EC50 with KARN cells (Jurkat 2C4) (setting [2]) and with KARN cells (Jurkat 2C4) (setting [3]) were 163 nM and 721 nM, respectively.
